Here are results for four sequences from paper PMC10447463, “Data-mining unveils structure–property–activity correlation of viral infectivity enhancing self-assembling peptides” (Nature Communications, 2023).

“And” between values parts separate entries of the source, which are not always exact repeats. Equal values may be shown once. Read-outs that look alike come from different tables or passages of the source.

The conditions of data set [1]: ref sieste 2021 or Schilling2019; cited from earlier work. An excerpt:
Supplement 41467_2023_40663_MOESM7_ESM.zip/FigS17.csv, table | column: Conversion Rate / % ( from sieste 2021 or Schilling2019)

The format of data set [2] is physicochemical. The note with it: STD prep.
The format of data set [3] is physicochemical. The method, boiled down: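 Preformed peptide fibrils (1 mg/mL) mixed with 50 µM ThT in PBS, 15 min at RT, fluorescence ex 440/em 488 nm versus PBS blank, triplicates. Zeta potential: peptides at 1 mg/mL in PBS pH 7.4, aged 1 d at RT, diluted in 1 mM KCl, Smoluchowski from electrophoretic mobility.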
The nature of data set [4]: β-sheet content by ATR-FT-IR. In kind it is physicochemical. The method, boiled down: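 First, PNF was ultrafiltered (3 kDa MWCO, 16200 x g, 45 min, 4 °C). Next, filtrate and unfiltered sample were lyophilized and taken up in DMSO. Then fluorescamine was added for 20 min at RT before reading ex 365/em 470 nm. β-sheet: ATR FT-IR of lyophilized 1 mg/mL PNF.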
[5] abbreviates: ThT fluorescence relative to blank (42.1851851851852 a.u.).
The mark [6] stands for this setting: relative to blank 42.1851851851852 a.u.

In the case of KAKAQANMWQ [JG3], the “Conversion Rate / % ( from sieste 2021 or Schilling2019)” value (from here on “Conversion Rate / %”) in data set [1] is on record as 65%. Moreover, the “TEM: 1= fibrils, 0= aggregates (micelle), 0.5 = aggregates and fibrils, -1 = nothing obersved, STD prep” value (“TEM: 1= fibrils, 0= aggregates (micelle)” below) in data set [2] is recorded as 0.5. Also, the “Tht category (> 1.5 to blank = +)” value in data set [3] (FigS26) is 0 (Tht category (> 1.5 to blank = +)); in data set [3] (category 1/0), 0 (ThT-inactive (N-Fold <2)). In addition, the “Tht rel to blank (42.1851851851852)” value in data set [3] (setting [5]) and in data set [3] (setting [6]) was 0.9886 in each case. Besides, the “FTIR ß-sheet content/ %” value in data set [4] is 42.81%; in data set [4] (ATR-FT-IR) it was 43% and 42.81%.
CKFKFQFNMWQ [BL2]: the “Conversion Rate / %” value in data set [1] is given as 96%. In addition, the “TEM: 1= fibrils, 0= aggregates (micelle)” value in data set [2] is on record as 1. Also, the “Tht rel to blank (42.1851851851852)” value in data set [3] (setting [5]) and in data set [3] (setting [6]) was 2.427 each time. Also, the “Tht category (> 1.5 to blank = +)” value in data set [3] (category 1/0) is on record as 1 (ThT. Cat is 1, if Rel. ThT >2). Moreover, the “FTIR ß-sheet content/ %” value was 47.05% in data set [4]; 47% and 47.05% in data set [4] (ATR-FT-IR).
As for KFKFQFNM [BL6a], the “Conversion Rate / %” value in data set [1] is 91%. Besides, the “TEM: 1= fibrils, 0= aggregates (micelle)” value in data set [2] came to 1. Also, the “Tht rel to blank (42.1851851851852)” value in data set [3] (setting [5]) and in data set [3] (setting [6]) was 1.202 each time. Besides, the “Tht category (> 1.5 to blank = +)” value in data set [3] (category 1/0) is 0 (ThT-inactive (N-Fold <2)). Further, the “FTIR ß-sheet content/ %” value in data set [4] is 40.31%; in data set [4] (ATR-FT-IR), 40% and 40.31%.
Turning to KIKIQINMWQ [JG1], in data set [1], the “Conversion Rate / %” value was 93%. Also, the “TEM: 1= fibrils, 0= aggregates (micelle)” value in data set [2] (FigS26) and in data set [2] was 1 throughout. The “Tht category (> 1.5 to blank = +)” value is reported as 1 (Tht category (> 1.5 to blank = +)) in data set [3] (FigS26) and 1 (ThT. Cat is 1, if Rel. ThT >2) in data set [3] (category 1/0). Moreover, the “Tht rel to blank (42.1851851851852)” value in data set [3] (setting [5]) and in data set [3] (setting [6]) was 5.939 in each case. The “FTIR ß-sheet content/ %” value in data set [4] is 42.41%; in data set [4] (ATR-FT-IR), 42% and 42.41%.
